From EP0558245A1, “Heterobicyclic compounds as antagogists of alpha-1 adrenergic and SHT1A receptors” (priority 1992, dated 1993)
Where two headings read alike, the source gives them in different places.

How the values were obtained:
[1] = Acute toxicity in mice after intraperitoneal and oral administration; conditions: mouse, in vivo, female albino Swiss mice, mortality recorded 7 days after administration
Description: Male Sprague Dawley rats [Crl: CD' BR] of 200-300 g b.w., female Albino Swiss mice [Crl: CD-1 (ICR) BR] 20-30 g b.w., and male Beagle dogs (10-12 kg b.w.) were obtained from Charles River, Italy and Nossan (Correzzana, Milan, Italy), respectively. Animals were housed with free access to food and water and maintained on forced light-dark cycle at 22-24°C until the day of experiments.
The acute toxicity of synthesized compounds was evaluated in female albino Swiss mice after intraperitoneal and oral administration. Four logarithmic scaled doses of the compounds were dissolved or suspended in 0.5% Methocel and administered in a volume of 10 ml/kg to groups of 4 mice/dose. Mortality was recorded 7 days after the administration. Data analysis: the LD₅₀ values and their fiducial limits were calculated according to the method of Weil (Biometrics, 8, 249, 1952).

5HT1A receptors = target: T1, 5HT1A receptors (Rattus norvegicus, UniProt P19327); assay: [3H]8-OH-DPAT binding (5HT1A receptors), rat hippocampus membranes
T1 construct: Rat hippocampi were homogenized; from tissue; host or cells: rat hippocampus membranes
T1 sequence (P19327 1-422): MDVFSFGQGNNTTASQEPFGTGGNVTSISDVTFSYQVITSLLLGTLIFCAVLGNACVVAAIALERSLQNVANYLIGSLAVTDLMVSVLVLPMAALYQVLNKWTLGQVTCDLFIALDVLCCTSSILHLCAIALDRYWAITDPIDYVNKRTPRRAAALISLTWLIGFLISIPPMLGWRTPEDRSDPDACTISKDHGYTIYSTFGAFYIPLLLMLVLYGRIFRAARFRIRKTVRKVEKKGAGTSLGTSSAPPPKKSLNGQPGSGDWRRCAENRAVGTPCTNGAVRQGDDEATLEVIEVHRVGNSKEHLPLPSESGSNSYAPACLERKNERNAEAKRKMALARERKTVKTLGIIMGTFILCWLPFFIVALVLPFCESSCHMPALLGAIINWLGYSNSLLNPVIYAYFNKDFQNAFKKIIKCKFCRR
Description: Rat hippocampi were homogenized in 50 volumes of original wet weight of ice-cold 50 mM Tris-HCl buffer pH 7.4. The homogenates were centrifuged at 48,000 x g for 10 minutes, and the pellets were resuspended in the same volume of ice-cold buffer, incubated for 10 minutes at 37°C, centrifuged and resuspended two more times. The final pellets obtained were resuspended in the same volume of buffer and incubated according to the conditions reported in the table below.
(§1) The incubations were terminated after the appropriate time (see table) by rapid filtration through Whatman GF/B filters using a Brandel cell harvester. The filters were washed twice with 15 ml of ice-cold buffer (see table). The radioactivity retained on the filters was determined by liquid scintillation counting. Nonspecific binding (which amounted generally to 10-30%) was evaluated by adding high concentrations of the specific displacers (see table). All the compounds were initially tested at 1x10⁻⁶ M concentration, and in the presence of significant displacing activity, a complete competition curve was generated (down to a concentration of 10⁻¹¹ M). All the samples were run in triplicate.
The competition curves were always analyzed (to evaluate the IC₅₀ values) by non linear curve fitting of the logistic equation according to the method reported by De Lean et al. (Am. J. Physiol., 235, E97, 1978), utilizing the ALLFIT program [publically available from the National Institutes of Health (N.I.H.) Bethesda, Maryland, USA] written for the IBM PC.

α₁ receptors = assay: [3H]prazosin binding (α1 receptors), rat cerebral cortex membranes; conditions: rat cerebral cortex crude membranes, [3H]prazosin 0.35 nM, 25°C 30 min; read-out: Receptor Binding IC50 (nM) α1
Description: Rat cerebral cortices were homogenized in 50 volumes of original wet weight of ice-cold 50 mM Tris-HCl buffer pH 7.4. The homogenates were centrifuged at 48,000 x g for 10 minutes, and the pellets were resuspended in the same volume of ice-cold buffer, centrifuged and resuspended two more times. The final pellets obtained were resuspended in the same volume of buffer and incubated according to the conditions reported in the table below.
as §1

rat bladder strips = assay: K+-induced contractions of rat bladder strips; type: cell-based
Description: The whole bladder of the rat was removed and immediately placed in Krebs solution warmed at 37°C. […] Each strip was placed in a 10 ml organ bath and connected, under a constant load of 1 g, to an isometric strain gauge (DY-1 Basile, Comerio, Varese, Italy). […] After a 60 minutes equilibration period the strips were exposed to 80 mM KCl (final concentration). […] When the tonic contraction was stable, the strips were washed and 30 minutes later a new contraction was induced. After having recorded two or more reproducible responses, one concentration of the tested drugs was added to the bath and 30 minutes later a new contraction was induced. The experimental groups consisted of at least two preparations taken from different animals for each concentration of drug tested. The IC₅₀ values of inhibition of agonist-induced contractions were evaluated by linear regression analysis.

[2] = ip, intraperitoneal, read-out: Acute Toxicity in Mice LD50 (mg/kg) i.p.
[3] = oral, read-out: Acute Toxicity in Mice LD50 (mg/kg) p.o.
[4] = rat hippocampus crude membranes, [3H]8-OH-DPAT 1.0 nM, 25°C 30 min, read-out: Receptor Binding IC50 (nM) 5-HT1a

Structure (SMILES) | LD50 at 168 h [1, 2] [mg/kg] | LD50 at 168 h [1, 3] [mg/kg] | IC50 (5HT1A receptors; [4]) [nM] | IC50 (α₁ receptors) [nM] | IC50 (5HT1A receptors) [nM] | IC50 (rat bladder strips; read-out: K+ Stimulation of Rat Bladder IC50 (μM) Contractions Phasic) [µM] | IC50 (rat bladder strips; read-out: K+ Stimulation of Rat Bladder IC50 (μM) Contractions Tonic) [µM]
COc1ccccc1N1CCN(CCCCc2cccc3c(=O)c(C)c(-c4ccccc4)oc23)CC1.CS(=O)(=O)O [Example 53, 8-{4-[4-(2-methoxyphenyl)-1-piperazinyl]-butyl}-3-methyl-4-oxo-2-phenyl-4H-1-benzopyran methanesulphonate] | 127 | 1020 | 41 | 7 |  |  | 
CS(=O)(=O)O.Cc1c(-c2ccccc2)oc2c(C(=O)NCCCN3CCC(c4ccccc4)CC3)cccc2c1=O [Example 54, 8-[3-(4-phenyl-1-piperidinyl)-propylcarbamoyl]-3-methyl-4-oxo-2-phenyl-4H-1-benzopyran methansulphonate] | 106 | 421 | 143 | 35 |  |  | 
CS(=O)(=O)O.Cc1c(-c2ccccc2)oc2c(C(=O)NCCCN3CCC(c4ccccc4)(c4ccccc4)CC3)cccc2c1=O [Example 55, 8-[3-(4,4-diphenyl-1-piperidinyl)-propylcarbamoyl]-3-methyl-4-oxo-2-phenyl-4H-1-benzopyran methansulphonate] | 128 | ≥ 2000 |  | 291 | > 1000 |  | 
Cc1c(-c2ccccc2)oc2c(C(=O)NCCCN3CCC(C(=O)c4ccc(F)cc4)CC3)cccc2c1=O [Example 56, 8-{3-[4-(4-fluorobenzoyl)-1-piperidinyl]-propyl-carbamoyl}-3-methyl-4-oxo-2-phenyl-4H-1-benzopyran] | > 500 |  | 748 | 25 |  |  | 
Cc1c(-c2ccccc2)oc2c(C(=O)NCCCN3CCC(n4c(=O)[nH]c5ccccc54)CC3)cccc2c1=O [Example 57, 8-{3-[4-(2-oxo-1-benzimidazolinyl)-1-piperidinyl]-propylcarbamoyl-}-3-methyl-4-oxo-2-phenyl-4H-1-benzopyran] | 500 | > 2000 | > 1000 | 69 |  |  | 
CS(=O)(=O)O.Cc1c(-c2ccccc2)oc2c(C(=O)NCCCN3CCN(c4ncccn4)CC3)cccc2c1=O [Example 58, 8-{3-[4-(2-pyrimidinyl)-1-piperazinyl]-propylcarbamoyl}-3-methyl-4-oxo-2-phenyl-4H-1-benzopyran methanesulphonate] | 258 | 508 | 126 | ≥ 1000 |  |  | 
Cc1c(-c2ccccc2)oc2c(C(=O)NCCCN3CCN(c4ccccc4O)CC3)cccc2c1=O [Example 59, 8-{3-[4-(2-hydroxyphenyl)-1-piperazinyl]-propylcarbamoyl}-3-methyl-4-oxo-2-phenyl-4H-1-benzopyran] | > 500 | 278 | 9 | 5 |  |  | 
COc1ccccc1N1CCN(CCCCNC(=O)c2cccc3c(=O)c(C)c(-c4ccccc4)oc23)CC1.CS(=O)(=O)O [Example 60, 8-{4-[4-(2-methoxyphenyl)-1-piperazinyl]-butylcarbamoyl}-3-methyl-4-oxo-2-phenyl-4H-1-benzopyran methansulphonate] | 203 | 329 | 45 | 25 |  |  | 
COc1ccccc1N1CCN(CCCNS(=O)(=O)c2cccc3c(=O)c(C)c(-c4ccccc4)oc23)CC1.CS(=O)(=O)O [Example 61, 8-{3-[4-(2-methoxyphenyl)-1-piperazinyl]-propylsulphamoyl}-3-methyl-4-oxo-2-phenyl-4H-1-benzopyran methanesulphonate] | 315 | 592 | 11 | 36 |  |  | 
COc1ccccc1OCCN(C)CCCNC(=O)c1cccc2c(=O)c(C)c(-c3ccccc3)oc12.Cl [Example 62, 8-{3-[N-methyl-2-(2-methoxyphenoxy)-ethylamino]-propylcarbamoyl}-3-methyl-4-oxo-2-phenyl-4H-1-benzopyran hydrochloride] | 128 | 344 | 278 | 252 |  |  | 
COc1ccccc1N1CCN(CCC(=O)N(C)c2cccc3c(=O)c(C)c(-c4ccccc4)oc23)CC1.CS(=O)(=O)O [Example 63, 8-{N-methyl-3-[4-(2-methoxyphenyl)-1-piperazinyl]-propionamido}-3-methyl-4-oxo-2-phenyl-4H-1-benzopyran methanesulphonate] | 309 | 479 | 99 | 194 |  |  | 
COc1ccccc1N1CCN(CCOC(=O)Cc2cccc3c(=O)c(C)c(-c4ccccc4)oc23)CC1.Cl.Cl [Example 66, 8-{2-[4-(2-methoxyphenyl)-1-piperazinyl]-ethoxycarbonylmethyl}-3-methyl-4-oxo-2-phenyl-4H-1-benzopyran dihydrochloride] |  | 601 | 56 | 57 |  |  | 
COc1ccccc1N1CCN(CCCCNS(=O)(=O)c2cccc3c(=O)c(C)c(-c4ccccc4)oc23)CC1.CS(=O)(=O)O.CS(=O)(=O)O [Example 67, 8-{4-[4-(2-methoxyphenyl)-1-piperazinyl]-butylsulphamoyl}-3-methyl-4-oxo-2-phenyl-4H-1-benzopyran dimethanesulphonate] | 508 | 1870 | 4 | 4 |  |  | 
COc1ccccc1N1CCN(CCCC(=O)Nc2cccc3c(=O)c(C)c(-c4ccccc4)oc23)CC1 [Example 69, 8-{4-[4-(2-methoxyphenyl)-1-piperazinyl]-butyramido}-3-methyl-4-oxo-2-phenyl-4H-1-benzopyran methanesulphonate hemihydrate] | 344 |  | 87 | 16 |  |  | 
COc1ccccc1N1CCN(CCO/N=C/c2cccc3c(=O)c(C)c(-c4ccccc4)oc23)CC1 [Example 70, E-8-{2-[4-(2-methoxyphenyl)-1-piperazinyl]-ethoxyimino-methyl}-3-methyl-4-oxo-2-phenyl-4H-1-benzopyran] | > 500 | 1870 | 85 | 53 |  |  | 
COc1ccccc1N1CCN(CCNC(=O)/C=C/c2cccc3c(=O)c(C)c(-c4ccccc4)oc23)CC1 [Example 72, E-8-<2-{2-[4-(2-methoxyphenyl)-1-piperazinyl]-ethylcarbamoyl}-ethenyl>-3-methyl-4-oxo-2-phenyl-4H-1-benzopyran methanesulphonate 1.2 H₂0] | 479 | > 2000 | 111 | 145 |  |  | 
COc1ccccc1N1CCN(CCCC[S+]([O-])c2cccc3c(=O)c(C)c(-c4ccccc4)oc23)CC1.CS(=O)(=O)O (centres unmarked) [Example 73, 8-{4-[4-(2-methoxyphenyl)-1-piperazinyl]-butylsulphinyl}-3-methyl-4-oxo-2-phenyl-4H-1-benzopyran methanesulphonate] | 202 | 462 | 89 | 6 |  |  | 
COc1ccccc1N1CCN(CCOC(=O)/C=C/c2cccc3c(=O)c(C)c(-c4ccccc4)oc23)CC1 [Example 79, (E)-8-<2-{2-[4-(2-methoxyphenyl)-1-piperazinyl]-ethoxycarbonyl}-ethenyl>-3-methyl-4-oxo-2-phenyl-4H-1-benzopyran methanesulphonate] | > 500 | > 2000 | 141 | 77 |  |  | 
COc1ccccc1N1CCN(CCCNC(=O)c2cccc3c2OCCC3=O)CC1.CS(=O)(=O)O [Example 87, 8-{3-[4-(2-methoxyphenyl)-1-piperazinyl]-propylcarbamoyl}-2,3-dihydro-4-oxo-4H-1-benzopyran methanesulphonate] | 237 | > 500 | 107 | 119 |  |  | 
COc1ccccc1N1CCN(CCCCOc2cccc3c(=O)c(C)c(-c4ccccc4)oc23)CC1.Cl.Cl [dihydrochloride] |  |  | 53 | 43 |  | 0.7 | 1.4
